The results in this text go back to patent publication US20260274892A1, “MACROCYCLIC BROAD SPECTRUM ANTIBIOTICS” (RQx Pharmaceuticals, Inc., priority 2017, published 2026).

In general, MIC refers to the least concentration at which growth counts as inhibited.

The test system of the experiment is Escherichia coli ATCC 25922. In words: Minimum inhibitory concentration (MIC), CLSI broth micro-dilution, E. coli. It counts as cell-based. Particulars: Escherichia coli. The protocol:
In vitro antimicrobial activity of each compound was determined by measuring minimal inhibitor concentrations (MICs) using the broth micro-dilution technique as approved by the Clinical and Laboratory Standards Institute (CLSI) (Methods for Dilution Antimicrobial Susceptibility Tests for Bacteria that Grow Aerobically; Approved Standard-Eighth Edition. CLSI document M07-A8. Wayne, PA: Clinical and Laboratroy Standards; 2009). Antibacterial activity was measure against two strains of bacteria: a Methicillin Resistant Staphylococcus aureus strain USA 200, (S. aureus) and Escherichia coli ATCC 25922 (E. coli), a clinically relevant Gram-negative strain. Cells were inoculated onto plates of Trypyticase Soy Agar or Luria Agar respectively and grown at 35° C. for 20 hours. Inocula suspensions were prepared by scraping cells into 1 mL of testing media (cation adjusted Mueller Hinton Broth supplemented with 0.002% v/v Tween-80) and diluting to a final OD600nm of 0.01.
Test compounds were prepared in DMSO at a concentration of 10 mg/mL. In protocol 1, the compound stocks were diluted into testing media at a concentration of 64 µg/ml and serial 2-fold dilutions were made in the same media, in 96-well U bottom microtiter dishes, for a total of 10 compound concentrations. In protocol 2, the compound stocks were diluted into testing media at a concentration of 4 µg/mL and serial 2-fold dilutions were made in the same media, in 96-well U bottom microtiter dishes, for a total of 10 compound concentrations. In protocol 3, compound stocks were diluted into testing media at a concentration of 0.5 μg/mL, with serial 2-fold dilutions conducted as described above. In protocol 4, compound stocks were diluted into testing media at a concentration of […], with serial 2-fold dilutions conducted as described above. Inocula suspensions were added to the 2-fold serial dilutions of test compounds to a final density of GD OD600nm of 0.0005 and incubated at 35° C. for 22 hours.
Background: Broth dilution looks for growth in wells or tubes with falling amounts of substance.

Setting [1] is: ATCC25922, 22 h, Table 6, cation adjusted Mueller Hinton Broth + 0.002% Tween-80, 35° C.
Setting [2] is: ATCC25922, Table 6, cation adjusted Mueller Hinton Broth + 0.002% Tween-80, 35° C., 22 hours.

Consider `Cc1nc(-c2ccc(C3CCCC3)cc2)nc(C)c1C(=O)N[C@@H](CCN)C(=O)N(C)[C@@H]1C(=O)N[C@@H](C)C(=O)N[C@H](C(=O)NCC#N)Cc2ccc(OCCN)c(c2)-c2cc1ccc2OCCN` (racemic) [Compound 302, rac-(8S,11S,14S)-3,18-bis(2-aminoethoxy)-N-(cyanomethyl)-11-methyl-14-[methyl-[rac-(2S)-4-amino-2-[[2-(4-cyclopentylphenyl)-4,6-dimethyl-pyrimidine-5-carbonyl]amino]butanoyl]amino]-10,13-dioxo-9,12-diazatricyclo[13.3.1.12,6]icosa-1(18),2(20),3,5,15(19),16-hexaene-8-carboxamide], for which the MIC under setting [1] was determined as 0.5 µM. On the same count and under the same terms, as for `Cc1nc(-c2ccc(C3=CCCCC3)cc2)nc(C)c1C(=O)N[C@@H](CCN)C(=O)N(C)[C@@H]1C(=O)N[C@@H](C)C(=O)N[C@H](C(=O)NCC#N)Cc2ccc(OCCN)c(c2)-c2cc1ccc2OCCN` (racemic) [Compound 303, rac-(8S,11S,14S)-3,18-bis(2-aminoethoxy)-N-(cyanomethyl)-11-methyl-14-[methyl-[rac-(2S)-4-amino-2-[[2-[4-(cyclohexen-1-yl)phenyl]-4,6-dimethyl-pyrimidine-5-carbonyl]amino]butanoyl]amino]-10,13-dioxo-9,12-diazatricyclo[13.3.1.12,6]icosa-1(18),2(20),3,5,15(19),16-hexaene-8-carboxamide], the figure is 0.13 µM; as for `Cc1nc(-c2ccc(C3CCCCC3)cc2)nc(C)c1C(=O)N[C@@H](CCN)C(=O)N(C)[C@@H]1C(=O)N[C@@H](C)C(=O)N[C@H](C(=O)NCC#N)Cc2ccc(OCCN)c(c2)-c2cc1ccc2OCCN` (racemic) [Compound 304, rac-(8S,11S,14S)-3,18-bis(2-aminoethoxy)-N-(cyanomethyl)-11-methyl-14-[methyl-[rac-(2S)-4-amino-2-[[2-(4-cyclohexylphenyl)-4,6-dimethyl-pyrimidine-5-carbonyl]amino]butanoyl]amino]-10,13-dioxo-9,12-diazatricyclo[13.3.1.12,6]icosa-1(18),2(20),3,5,15(19),16-hexaene-8-carboxamide], 0.13 µM; as for `Cc1nc(-c2ccc(C3CCCCCC3)cc2)nc(C)c1C(=O)N[C@@H](CCN)C(=O)N(C)[C@@H]1C(=O)N[C@@H](C)C(=O)N[C@H](C(=O)NCC#N)Cc2ccc(OCCN)c(c2)-c2cc1ccc2OCCN` (racemic) [Compound 305, rac-(8S,11S,14S)-3,18-bis(2-aminoethoxy)-N-(cyanomethyl)-11-methyl-14-[methyl-[rac-(2S)-4-amino-2-[[2-(4-cycloheptylphenyl)-4,6-dimethyl-pyrimidine-5-carbonyl]amino]butanoyl]amino]-10,13-dioxo-9,12-diazatricyclo[13.3.1.12,6]icosa-1(18),2(20),3,5,15(19),16-hexaene-8-carboxamide], 0.13 µM. Consider `C=Cc1ccc(C#Cc2nc(C)c(C(=O)N[C@@H](CCN)C(=O)N(C)[C@@H]3C(=O)N[C@@H](C)C(=O)N[C@H](C(=O)NCC#N)Cc4ccc(OCCN)c(c4)-c4cc3ccc4OCCN)c(C)n2)cc1` (racemic) [Compound 310, rac-(8S,11S,14S)-3,18-bis(2-aminoethoxy)-N-(cyanomethyl)-11-methyl-14-[methyl-[rac-(2S)-4-amino-2-[[4,6-dimethyl-2-[2-(4-vinylphenyl)ethynyl]pyrimidine-5-carbonyl]amino]butanoyl]amino]-10,13-dioxo-9,12-diazatricyclo[13.3.1.12,6]icosa-1(18),2(20),3,5,15(19),16-hexaene-8-carboxamide], for which the MIC under setting [2] was 0.53 µM. On to `Cc1nc(-c2ccc(N3C[C@H](C)C[C@H](C)C3)cc2)nc(C)c1C(=O)N[C@@H](CCN)C(=O)N(C)[C@@H]1C(=O)N[C@@H](C)C(=O)N[C@H](C(=O)NCC#N)Cc2ccc(OCCN)c(c2)-c2cc1ccc2OCCN` (racemic) [Compound 327, rac-(8S,11S,14S)-3,18-bis(2-aminoethoxy)-N-(cyanomethyl)-11-methyl-14-[methyl-[rac-(2S)-4-amino-2-[[4,6-dimethyl-2-[4-[rac (3S,5R)-3,5-dimethyl-1-piperidyl]phenyl]pyrimidine-5-carbonyl]amino]butanoyl]amino]-10,13-dioxo-9,12-diazatricyclo[13.3.1.12,6]icosa-1(18),2(20),3,5,15(19),16-hexaene-8-carboxamide], for which the MIC under setting [1] turned out to be 0.13 µM. As for `Cc1nc(-c2ccc(OC3(C)CC3)cc2)nc(C)c1C(=O)N[C@@H](CCN)C(=O)N(C)[C@@H]1C(=O)N[C@@H](C)C(=O)N[C@H](C(=O)NCC#N)Cc2ccc(OCCN)c(c2)-c2cc1ccc2OCCN` (racemic) [Compound 344, rac-(8S,11S,14S)-3,18-bis(2-aminoethoxy)-N-(cyanomethyl)-11-methyl-14-[methyl-[rac-(2S)-4-amino-2-[[4,6-dimethyl-2-[4-(1-methylcyclopropoxy)phenyl]pyrimidine-5-carbonyl]amino]butanoyl]amino]-10,13-dioxo-9,12-diazatricyclo[13.3.1.12,6]icosa-1(18),2(20),3,5,15(19),16-hexaene-8-carboxamide], the MIC under setting [2] amounted to 0.38 µM. On to `CCC1(Oc2ccc(-c3nc(C)c(C(=O)N[C@@H](CCN)C(=O)N(C)[C@@H]4C(=O)N[C@@H](C)C(=O)N[C@H](C(=O)NCC#N)Cc5ccc(OCCN)c(c5)-c5cc4ccc5OCCN)c(C)n3)cc2)CC1` (racemic) [Compound 345, rac-(8S,11S,14S)-3,18-bis(2-aminoethoxy)-N-(cyanomethyl)-11-methyl-14-[methyl-[rac-(2S)-4-amino-2-[[2-[4-(1-ethylcyclopropoxy)phenyl]-4,6-dimethyl-pyrimidine-5-carbonyl]amino]butanoyl]amino]-10,13-dioxo-9,12-diazatricyclo[13.3.1.12,6]icosa-1(18),2(20),3,5,15(19),16-hexaene-8-carboxamide], for which the MIC under setting [2] was determined as 0.25 µM. As to `CCCCOc1c(F)c(F)c(-c2nc(C)c(C(=O)N[C@@H](CCN)C(=O)N(C)[C@@H]3C(=O)N[C@@H](C)C(=O)N[C@H](C(=O)NCC#N)Cc4ccc(OCCN)c(c4)-c4cc3ccc4OCCN)c(C)n2)c(F)c1F` (racemic) [Compound 351, rac-(8S,11S,14S)-3,18-bis(2-aminoethoxy)-N-(cyanomethyl)-11-methyl-14-[methyl-[rac-(2S)-4-amino-2-[[2-(4-butoxy-2,3,5,6-tetrafluoro-phenyl)-4,6-dimethyl-pyrimidine-5-carbonyl]amino]butanoyl]amino]-10,13-dioxo-9,12-diazatricyclo[13.3.1.12,6]icosa-1(18),2(20),3,5,15(19),16-hexaene-8-carboxamide], under setting [1], the minimal inhibitory concentration (MIC) worked out at 0.25 µM. Regarding `Cc1nc(Oc2ccc(C(C)(C)C)cc2)nc(C)c1C(=O)N[C@@H](CCN)C(=O)N(C)[C@@H]1C(=O)N[C@@H](C)C(=O)N[C@H](C(=O)NCC#N)Cc2ccc(OCCN)c(c2)-c2cc1ccc2OCCN` (racemic) [Compound 353, rac-(8S,11S,14S)-3,18-bis(2-aminoethoxy)-N-(cyanomethyl)-11-methyl-14-[methyl-[rac-(2S)-4-amino-2-[[2-(4-tert-butylphenoxy)-4,6-dimethyl-pyrimidine-5-carbonyl]amino]butanoyl]amino]-10,13-dioxo-9,12-diazatricyclo[13.3.1.12,6]icosa-1(18),2(20),3,5,15(19),16-hexaene-8-carboxamide], under setting [2], the minimum inhibitory concentration (MIC) amounted to 2 µM.
